# Reference: patent US6376666B1 (Nauchno-Issledovatelsky Institut Farmakologii Rossiiskoi …, priority 1994, dated 2002)
# What was measured:
# Assay type in all cases: in vivo
# Balb/c mice = assay: open-field test, Balb/c mice (passive type of emotional-stress reaction); parameters: key to Total activity: sum of all locomotor activity counts (crossings + rearings) in 3 min; details: for Central activity (crossings) / Number of defecations / Peripheral activity (crossings) / Total activity / Vertical activity (rearings): M ± mx; for effect on the behavior (locomotor activity) of Balb/c mice in open-field test, in words: i.p., screening
# Description: (§1) The main point of this approach consists in comparative analysis of the behavioural effects of tested compounds in two inbred strains of mice Balb/c and C57B1/6 with different hereditary types of emotional-stress reactions (ESR). The anxiolytic effect was estimated as the activation of the locomotor activity of animals with “passive” type of ESR (Balb/c mice). The main index describing the sedative properties of tested drugs was the inhibition of the locomotor activity of mice with “active” type of ESR (C57B1/6 strain). The anxioselectivity was evaluated according to coincidence of doses range which activated or inhibited the behavior of mice of different strains. Earlier this approach has been successfully used for estimation of anxioselective activity of such known drugs as phenazepam [Seredenin S. B. et al., Bull.Exp.Biol.Med., 1979, v.88, N7, p.38; Seredenin S. B. et al., Ann.Inst.Super.Sanita, 1990, v.26, N1, p.81-88], mexidol [Seredenin S. B. et al., Khimiko-Farmatsevt.Zhurnal, 1987, N2, p.134; Vironina T. A., Seredenin S. B., Ann.Inst.Super.Sanita, 1988, v.24, N3, p.461-466] and gidazepam [Seredenin S. B. et al., in: “Gidazepam” Kiev, Naukova Dumka, 1992, p.92; Seredenin S. B., Blednov Yu. A., Phys.Chem.Biol.Med., 1993, v.1, N1, p.53-60].
# (§2) Male C57B1/6 and Balb/c mice (“Stolbovaya” animal farm), weighing 20-22 g were used. The animals were housed in a separate animal room in groups of ten and maintained on 12 h light-dark cycle (light from 8.00 till 20.00) with free access to standard food and water during two weeks before experiment. Testing was performed between 9.00 and 13.00. Every used compound was administered intraperitoneally in water solutions 30 min before testing (0,1 ml solution per 10 g of weight). The “open-field” apparatus consisted of cylinder closed from one end, illuminated by four 75 W lamps fixed to the walls 100 cm above the floor. The “open-field” apparatus was 100 cm in diameter and white-painted; the floor was marked with 3 black circles and some radial lines divided the floor into 16 peripheral and 8 central segments. 30 min after injection each animal was placed in the same peripheral square on the floor for 3 min of testing after 1 min exposure in the dark chamber. The following behavior variables were recorded: 1) the number of crossings in the peripheral area (peripheral activity); 2) the number of crossings in the central segments (central activity); 3) the number of rearings (vertical activity); 4) the emotionality was measured as the number of defecations during the test. The sum of all types of locomotor activity was marked as total activity. The t-Student test was used for statistical analysis.
# C57B1/6 mice = assay: open-field test, C57B1/6 mice (active type of emotional-stress reaction); details: i.p., doses that activate Balb/c mice
# Description: as §1, §2
# outbred male rats = assay: conflict Vogel test (punished licking of water); details: M ± mx
# Experimental: The study of anxiolytic activity of chosen compounds was carried out in the experiments with outbred male rats weighing 180-200 g in standard conflict Vogel' procedure [Voronina T. A. et al., in: “Phenazepam”, Naukova Dumka, Kiev, 1982, p.89, 93, 146]. The main aim of the initial step of experiments was the training of rats to develop the feeling of thirst with following experience of water licking from bottle in the experimental chamber. The animals were deprived of water for 24 hours and were placed in the test chamber for 5-min adaptation period during which they had free access to the drinking bottle. After another 24 h deprivation period the rats were placed again in the test chamber and were allowed to drink water for 5 sec. Immediately afterwards drinking attempts were punished by electric shock (0,5 mA). Under this collision of drinking and protective reflexes the extremal situation was developed. In this situation the anxiety of punishment prevented the licking process. The number of shocks received throughout a 5-min experimental session was recorded.
# outbred male mice = assay: rotarod test (myorelaxant activity); details: cut-off 120 sec
# Experimental: The myorelaxant activity of choosen compounds were studied in the outbred male mice weighing 22-25 g in rotarod test [Voronina T. A. et al., in: “Phenazepam”, Naukova Dumka, Kiev, 1982, p.145]. The animals were placed on the horizontal rotarod (D=2 cm) calibrated for a fixed speed of 4 rpm. According to the rotarod experimental protocol, normal motor coordination was defined by the ability of the animals to remain on the rotarod for an arbitrarily selected time of 120 sec.
# male outbred mice = assay: potentiation of sleep induced by sodium thiopental
# Experimental: The possible hypnotic effects of choosen drugs was estimated according to method of potentiation of sleep induced by sodium thiopental. The male outbred mice weighing 20-25 g were injected i.p. with sodium thiopental at dose of 70 mg/kg. Two parameters were estimated: latent time of sleeping and duration of sleep. The used compounds were administered i.p. 30 min prior injection of sodium thiopental.
# [1] = 0.5 mg/kg i.p. 30 min before thiopental 70 mg/kg i.p.
# [2] = 1.0 mg/kg i.p. 30 min before thiopental 70 mg/kg i.p.
# [3] = 5.0 mg/kg i.p. 30 min before thiopental 70 mg/kg i.p.
# [4] = 10.0 mg/kg i.p. 30 min before thiopental 70 mg/kg i.p.
compound,measurement,setting,value
"Cc1cc2nc(SCCN3CCCCC3)[nH]c2cc1C [XIV, 2-[2-(Piperidino)ethylthio]-5,6-dimethylbenzimidazole]",Central activity (crossings),Balb/c mice; 0.1 mg/kg i.p.,1.1 ± 0.7
same,Number of defecations,Balb/c mice; 0.1 mg/kg i.p.,1.3 ± 0.5
same,Peripheral activity (crossings),Balb/c mice; 0.1 mg/kg i.p.,27.0 ± 6.3
same,Total activity,Balb/c mice; 0.1 mg/kg i.p.,28.2 ± 7.1
same,Vertical activity (rearings),Balb/c mice; 0.1 mg/kg i.p.,0.1 ± 0.1
same,Central activity (crossings),Balb/c mice; 0.5 mg/kg i.p.,4.7 ± 2.7
same,Number of defecations,Balb/c mice; 0.5 mg/kg i.p.,1.0 ± 0.4
same,Peripheral activity (crossings),Balb/c mice; 0.5 mg/kg i.p.,44.4 ± 9.2
same,Total activity,Balb/c mice; 0.5 mg/kg i.p.,49.4 ± 10.7
same,Vertical activity (rearings),Balb/c mice; 0.5 mg/kg i.p.,0.3 ± 0.3
same,Central activity (crossings),Balb/c mice; 1.0 mg/kg i.p.,0.9 ± 0.8
same,Number of defecations,Balb/c mice; 1.0 mg/kg i.p.,2.9 ± 0.7
same,Peripheral activity (crossings),Balb/c mice; 1.0 mg/kg i.p.,38.7 ± 4.8
same,Total activity,Balb/c mice; 1.0 mg/kg i.p.,39.7 ± 5.7
same,Vertical activity (rearings),Balb/c mice; 1.0 mg/kg i.p.,0.1 ± 0.1
same,Central activity (crossings),Balb/c mice; 5.0 mg/kg i.p.,2.8 ± 1.8
same,Number of defecations,Balb/c mice; 5.0 mg/kg i.p.,0.7 ± 0.7
same,Peripheral activity (crossings),Balb/c mice; 5.0 mg/kg i.p.,58.7 ± 7.2
same,Total activity,Balb/c mice; 5.0 mg/kg i.p.,61.3 ± 9.0
same,Number of defecations,Balb/c mice; 10.0 mg/kg i.p.,2.0 ± 0.9
same,Peripheral activity (crossings),Balb/c mice; 10.0 mg/kg i.p.,67.8 ± 11.1
same,Total activity,Balb/c mice; 10.0 mg/kg i.p.,67.8 ± 11.1
same,Central activity (crossings),Balb/c mice; 20.0 mg/kg i.p.,3.4 ± 3.4
same,Number of defecations,Balb/c mice; 20.0 mg/kg i.p.,0.1 ± 0.1
same,Peripheral activity (crossings),Balb/c mice; 20.0 mg/kg i.p.,17.3 ± 8.0
same,Total activity,Balb/c mice; 20.0 mg/kg i.p.,20.8 ± 9.6
same,Vertical activity (rearings),Balb/c mice; 20.0 mg/kg i.p.,0.1 ± 0.1
same,"effect on the behavior (locomotor activity) of Balb/c mice in open-field test, in words",Balb/c mice,able to activate the behavior of Balb/c mice
same,"effect on locomotor activity of C57B1/6 mice in open-field test, in words",C57B1/6 mice,without any changes in locomotor activity
same,number of punished lickings (shocks received in 5-min session),outbred male rats; 1.0 mg/kg i.p.,31.6 ± 7.6
same,number of punished lickings (shocks received in 5-min session),outbred male rats; 5.0 mg/kg i.p.,32.9 ± 5.8
same,number of punished lickings (shocks received in 5-min session),outbred male rats; 10.0 mg/kg i.p.,36.0 ± 9.4
same,number of punished lickings (shocks received in 5-min session),outbred male rats; 20.0 mg/kg i.p.,42.3 ± 10.8
same,time of remaining on the rotarod,outbred male mice; 0.1 mg/kg,120 + 0 sec
same,time of remaining on the rotarod,outbred male mice; 1.0 mg/kg,120 + 0 sec
same,time of remaining on the rotarod,outbred male mice; 5.0 mg/kg,120 + 0 sec
same,time of remaining on the rotarod,outbred male mice; 10.0 mg/kg,120 + 0 sec
same,time of remaining on the rotarod,outbred male mice; 20.0 mg/kg,120 + 0 sec
same,duration of sleep after sodium thiopental,male outbred mice; [1],91.0 ± 17.8 min
same,latent time of sleep after sodium thiopental,male outbred mice; [1],2.5 ± 0.5 s
same,latent time of sleep after sodium thiopental,male outbred mice; [2],2.5 ± 0.2 s
same,duration of sleep after sodium thiopental,male outbred mice; [3],86.4 ± 13.9 min
same,latent time of sleep after sodium thiopental,male outbred mice; [3],2.2 ± 0.2 s
same,duration of sleep after sodium thiopental,male outbred mice; [4],70.6 ± 9.0 min
same,latent time of sleep after sodium thiopental,male outbred mice; [4],2.9 ± 0.4 s
"C=CCSc1nc2ccc(OCC)cc2[nH]1 [IV, 2-Allylthio-5-ethoxybenzimidazole]",Number of defecations,Balb/c mice; 0.1 mg/kg i.p.,0.6 ± 0.5
same,Peripheral activity (crossings),Balb/c mice; 0.1 mg/kg i.p.,12.6 ± 2.6
same,Total activity,Balb/c mice; 0.1 mg/kg i.p.,12.6 ± 2.6
same,Peripheral activity (crossings),Balb/c mice; 1.0 mg/kg i.p.,11.4 ± 2.3
same,Total activity,Balb/c mice; 1.0 mg/kg i.p.,11.4 ± 2.3
same,Number of defecations,Balb/c mice; 5.0 mg/kg i.p.,1.7 ± 0.8
same,Peripheral activity (crossings),Balb/c mice; 5.0 mg/kg i.p.,13.6 ± 3.5
same,Total activity,Balb/c mice; 5.0 mg/kg i.p.,13.6 ± 3.5
same,Number of defecations,Balb/c mice; 10.0 mg/kg i.p.,3.0 ± 0.7
same,Peripheral activity (crossings),Balb/c mice; 10.0 mg/kg i.p.,9.5 ± 1.9
same,Total activity,Balb/c mice; 10.0 mg/kg i.p.,9.5 ± 1.9
same,Number of defecations,Balb/c mice; 20.0 mg/kg i.p.,2.5 ± 0.7
same,Peripheral activity (crossings),Balb/c mice; 20.0 mg/kg i.p.,8.9 ± 2.0
same,Total activity,Balb/c mice; 20.0 mg/kg i.p.,8.9 ± 2.0
same,"effect on the behavior (locomotor activity) of Balb/c mice in open-field test, in words",Balb/c mice,able to activate the behavior of Balb/c mice
same,"effect on locomotor activity of C57B1/6 mice in open-field test, in words",C57B1/6 mice,without any changes in locomotor activity
same,number of punished lickings (shocks received in 5-min session),outbred male rats; 1.0 mg/kg i.p.,29.7 ± 5.3
same,number of punished lickings (shocks received in 5-min session),outbred male rats; 5.0 mg/kg i.p.,31.0 ± 5.6
same,number of punished lickings (shocks received in 5-min session),outbred male rats; 10.0 mg/kg i.p.,35.8 ± 7.8
same,number of punished lickings (shocks received in 5-min session),outbred male rats; 20.0 mg/kg i.p.,62.3 ± 19.5
same,time of remaining on the rotarod,outbred male mice; 0.1 mg/kg,120 + 0 sec
same,time of remaining on the rotarod,outbred male mice; 1.0 mg/kg,120 + 0 sec
same,time of remaining on the rotarod,outbred male mice; 5.0 mg/kg,120 + 0 sec
same,time of remaining on the rotarod,outbred male mice; 10.0 mg/kg,120 + 0 sec
same,time of remaining on the rotarod,outbred male mice; 20.0 mg/kg,120 + 0 sec
same,duration of sleep after sodium thiopental,male outbred mice; [1],42.8 ± 13.5 min
same,latent time of sleep after sodium thiopental,male outbred mice; [1],3.0 ± 0.3 s
same,duration of sleep after sodium thiopental,male outbred mice; [2],32.5 ± 7.9 min
same,latent time of sleep after sodium thiopental,male outbred mice; [2],2.7 ± 0.3 s
same,duration of sleep after sodium thiopental,male outbred mice; [3],50.7 ± 11.0 min
same,latent time of sleep after sodium thiopental,male outbred mice; [3],2.8 ± 0.3 s
same,duration of sleep after sodium thiopental,male outbred mice; [4],45.1 ± 10.6 min
same,latent time of sleep after sodium thiopental,male outbred mice; [4],2.5 ± 0.1 s
